Data from PubChem BioAssay AID1259407 (Chemical Carcinogenesis Research Information System (CCRIS), 2018).
Activity calls are given as the source filed them. How the calls were made is not given here.

Test system: CCRIS mutagenicity, Ames/micronucleus/aberration tests
Assay: CCRIS mutagenicity studies
[1] = Test System: AMES SALMONELLA TYPHIMURIUM, Strain/Indicator: TA98, Metabolic Activation: NONE, Method: PREINCUBATION
[2] = Test System: AMES SALMONELLA TYPHIMURIUM, Strain/Indicator: TA98, Metabolic Activation: RAT, LIVER, S-9, AROCLOR 1254 (10%), Method: PREINCUBATION
[3] = Test System: AMES SALMONELLA TYPHIMURIUM, Strain/Indicator: TA100, Metabolic Activation: HAMSTER, LIVER, S-9, AROCLOR 1254 (10%), Method: PREINCUBATION
[4] = Test System: AMES SALMONELLA TYPHIMURIUM, Strain/Indicator: TA100, Metabolic Activation: NONE, Method: PREINCUBATION
[5] = Test System: AMES SALMONELLA TYPHIMURIUM, Strain/Indicator: TA100, Metabolic Activation: RAT, LIVER, S-9, AROCLOR 1254 (10%), Method: PREINCUBATION
[6] = Test System: AMES SALMONELLA TYPHIMURIUM, Strain/Indicator: TA1535, Metabolic Activation: HAMSTER, LIVER, S-9, AROCLOR 1254 (10%), Method: PREINCUBATION
[7] = Test System: AMES SALMONELLA TYPHIMURIUM, Strain/Indicator: TA1535, Metabolic Activation: NONE, Method: PREINCUBATION
[8] = Test System: AMES SALMONELLA TYPHIMURIUM, Strain/Indicator: TA1535, Metabolic Activation: RAT, LIVER, S-9, AROCLOR 1254 (10%), Method: PREINCUBATION

O.O.O.O.O.O.O=[N+]([O-])[O-].O=[N+]([O-])[O-].O=[N+]([O-])[O-].[La+3]
mutagenic call (Test System: AMES SALMONELLA TYPHIMURIUM, Strain/Indicator: TA97, Metabolic Activation: HAMSTER, LIVER, S-9, AROCLOR 1254 (10 OR 30%), Method: PREINCUBATION): inactive; negative | mutagenic call (Test System: AMES SALMONELLA TYPHIMURIUM, Strain/Indicator: TA97, Metabolic Activation: NONE, Method: PREINCUBATION): inactive; negative | mutagenic call (Test System: AMES SALMONELLA TYPHIMURIUM, Strain/Indicator: TA97, Metabolic Activation: RAT, LIVER, S-9, AROCLOR 1254 (10%), Method: PREINCUBATION): inactive; negative | mutagenic call (Test System: AMES SALMONELLA TYPHIMURIUM, Strain/Indicator: TA97, Metabolic Activation: RAT, LIVER, S-9, AROCLOR 1254 (30%), Method: PREINCUBATION): inactive; negative | mutagenic call (Test System: AMES SALMONELLA TYPHIMURIUM, Strain/Indicator: TA98, Metabolic Activation: HAMSTER, LIVER, S-9, AROCLOR 1254 (10 OR 30%), Method: PREINCUBATION): inactive; negative | mutagenic call [1]: inactive; negative | mutagenic call [2]: inactive; negative | mutagenic call (Test System: AMES SALMONELLA TYPHIMURIUM, Strain/Indicator: TA98, Metabolic Activation: RAT, LIVER, S-9, AROCLOR 1254 (30%), Method: PREINCUBATION): inactive; negative | mutagenic call [3]: inactive; negative | mutagenic call (Test System: AMES SALMONELLA TYPHIMURIUM, Strain/Indicator: TA100, Metabolic Activation: HAMSTER, LIVER, S-9, AROCLOR 1254 (30%), Method: PREINCUBATION): inactive; negative | mutagenic call [4]: inactive; negative | mutagenic call [5]: inactive; negative | mutagenic call (Test System: AMES SALMONELLA TYPHIMURIUM, Strain/Indicator: TA100, Metabolic Activation: RAT, LIVER, S-9, AROCLOR 1254 (30%), Method: PREINCUBATION): inactive; negative | mutagenic call [6]: inactive; negative | mutagenic call (Test System: AMES SALMONELLA TYPHIMURIUM, Strain/Indicator: TA1535, Metabolic Activation: HAMSTER, LIVER, S-9, AROCLOR 1254 (30%), Method: PREINCUBATION): inactive; negative | mutagenic call [7]: inactive; negative | mutagenic call [8]: inactive; negative | mutagenic call (Test System: AMES SALMONELLA TYPHIMURIUM, Strain/Indicator: TA1535, Metabolic Activation: RAT, LIVER, S-9, AROCLOR 1254 (30%), Method: PREINCUBATION): inactive; negative | mutagenic call (Test System: UDS HUMAN LYMPHOCYTES, Strain/Indicator: THYMIDINE INCORPORATION, Metabolic Activation: NONE, Method: LIQUID SCINTILLATION COUNTING): active; positive

COc1ccc2c(c1)-c1c(OC)c(OC)cc3c1C(C2=O)N(C)CC3 (stereo not given)
mutagenic call (Test System: AMES SALMONELLA TYPHIMURIUM, Strain/Indicator: TA100, Metabolic Activation: RAT, LIVER, S-9, PHENOBARBITAL AND BETA-NAPHTHOFLAVONE, Method: PREINCUBATION): inactive; negative

O=[N+]([O-])c1ccc(/C=N\O)o1
mutagenic call (Test System: E. COLI, Strain/Indicator: WP2 UVRA, Metabolic Activation: NONE, Method: SPOT): active; positive | mutagenic call (Test System: E. COLI, Strain/Indicator: WP2 UVRA, Metabolic Activation: NONE, Method: STANDARD PLATE): active; positive

Cc1cc(-c2ccc(N/N=C3\C(=O)c4c(O)cc(S(=O)(=O)O)cc4C=C3S(=O)(=O)O)c(C)c2)ccc1N/N=C1\C(=O)c2c(O)cc(S(=O)(=O)O)cc2C=C1S(=O)(=O)O
mutagenic call (Test System: AMES SALMONELLA TYPHIMURIUM, Strain/Indicator: TA98, Metabolic Activation: HAMSTER, LIVER, S-9, AROCLOR 1254 (10%), Method: PREINCUBATION): inactive; negative | mutagenic call [1]: inactive; negative | mutagenic call [2]: inactive; negative | mutagenic call [3]: inactive; negative | mutagenic call [4]: inactive; negative | mutagenic call [5]: inactive; negative | mutagenic call [6]: inactive; negative | mutagenic call [7]: inactive; negative | mutagenic call [8]: inactive; negative | mutagenic call (Test System: AMES SALMONELLA TYPHIMURIUM, Strain/Indicator: TA1537, Metabolic Activation: HAMSTER, LIVER, S-9, AROCLOR 1254 (10%), Method: PREINCUBATION): inactive; negative | mutagenic call (Test System: AMES SALMONELLA TYPHIMURIUM, Strain/Indicator: TA1537, Metabolic Activation: NONE, Method: PREINCUBATION): inactive; negative | mutagenic call (Test System: AMES SALMONELLA TYPHIMURIUM, Strain/Indicator: TA1537, Metabolic Activation: RAT, LIVER, S-9, AROCLOR 1254 (10%), Method: PREINCUBATION): inactive; negative | mutagenic call (Test System: AMES SALMONELLA TYPHIMURIUM, Strain/Indicator: TA1538, Metabolic Activation: RAT, LIVER, S-9, AROCLOR 1254, Method: STANDARD PLATE): inactive; negative
